Experimental data taken from US20180099931A1 (AbbVie S.à.r.l., priority 2016, published 2018).
Like-named read-outs stand apart in the source and are kept apart here.

Biological target: T1, F508delCFTR (Homo sapiens, UniProt P13569, DEL508-508)
T1 construct: expressed in transfected cells; host or cells: CFBE41o- human lung-derived epithelial cells (CFBE4lo-F508delCFTR-HRP), doxycycline-inducible
Assay: Cell Surface Expression-Horse Radish Peroxidase (CSE-HRP) Assay;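 on Maximum % activity (with co-corrector): co-corrector and positive control are both the same reference corrector at 2 µM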;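 on Maximum % activity (without co-corrector): percent of the 2 µM on-plate positive control corrector response above DMSO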
Type: cell-based
Details: for Maximum % activity (with co-corrector) / Emax: maximum at any tested concentration, normalized to on-plate positive control; for Emax: read-out: Maximum % activity (without co-corrector)

[1] = test compound without co-corrector, read-out: EC50 (without co-corrector)
[2] = with co-corrector (2 μM of 3-[(2R,4R)-4-({[1-(2,2-difluoro-1,3-benzodioxol-5-yl)cyclopropyl]carbonyl}amino)-7-methoxy-3,4-dihydro-2H-chromen-2-yl]benzoic acid), read-out: EC50 (with co-corrector)
[3] = CSE-HRP, test compound without co-corrector, read-out: EC50 (without co-corrector)
[4] = CSE-HRP, with co-corrector (2 μM of 3-[(2R,4R)-4-({[1-(2,2-difluoro-1,3-benzodioxol-5-yl)cyclopropyl]carbonyl}amino)-7-methoxy-3,4-dihydro-2H-chromen-2-yl]benzoic acid), read-out: EC50 (with co-corrector)
[5] = CSE-HRP, with co-corrector (2 μM)
[6] = test compound without co-corrector
[7] = with co-corrector (2 μM of 3-[(2R,4R)-4-({[1-(2,2-difluoro-1,3-benzodioxol-5-yl)cyclopropyl]carbonyl}amino)-7-methoxy-3,4-dihydro-2H-chromen-2-yl]benzoic acid)

T1 sequence (P13569 with tags, fused parts or gaps DEL508-508): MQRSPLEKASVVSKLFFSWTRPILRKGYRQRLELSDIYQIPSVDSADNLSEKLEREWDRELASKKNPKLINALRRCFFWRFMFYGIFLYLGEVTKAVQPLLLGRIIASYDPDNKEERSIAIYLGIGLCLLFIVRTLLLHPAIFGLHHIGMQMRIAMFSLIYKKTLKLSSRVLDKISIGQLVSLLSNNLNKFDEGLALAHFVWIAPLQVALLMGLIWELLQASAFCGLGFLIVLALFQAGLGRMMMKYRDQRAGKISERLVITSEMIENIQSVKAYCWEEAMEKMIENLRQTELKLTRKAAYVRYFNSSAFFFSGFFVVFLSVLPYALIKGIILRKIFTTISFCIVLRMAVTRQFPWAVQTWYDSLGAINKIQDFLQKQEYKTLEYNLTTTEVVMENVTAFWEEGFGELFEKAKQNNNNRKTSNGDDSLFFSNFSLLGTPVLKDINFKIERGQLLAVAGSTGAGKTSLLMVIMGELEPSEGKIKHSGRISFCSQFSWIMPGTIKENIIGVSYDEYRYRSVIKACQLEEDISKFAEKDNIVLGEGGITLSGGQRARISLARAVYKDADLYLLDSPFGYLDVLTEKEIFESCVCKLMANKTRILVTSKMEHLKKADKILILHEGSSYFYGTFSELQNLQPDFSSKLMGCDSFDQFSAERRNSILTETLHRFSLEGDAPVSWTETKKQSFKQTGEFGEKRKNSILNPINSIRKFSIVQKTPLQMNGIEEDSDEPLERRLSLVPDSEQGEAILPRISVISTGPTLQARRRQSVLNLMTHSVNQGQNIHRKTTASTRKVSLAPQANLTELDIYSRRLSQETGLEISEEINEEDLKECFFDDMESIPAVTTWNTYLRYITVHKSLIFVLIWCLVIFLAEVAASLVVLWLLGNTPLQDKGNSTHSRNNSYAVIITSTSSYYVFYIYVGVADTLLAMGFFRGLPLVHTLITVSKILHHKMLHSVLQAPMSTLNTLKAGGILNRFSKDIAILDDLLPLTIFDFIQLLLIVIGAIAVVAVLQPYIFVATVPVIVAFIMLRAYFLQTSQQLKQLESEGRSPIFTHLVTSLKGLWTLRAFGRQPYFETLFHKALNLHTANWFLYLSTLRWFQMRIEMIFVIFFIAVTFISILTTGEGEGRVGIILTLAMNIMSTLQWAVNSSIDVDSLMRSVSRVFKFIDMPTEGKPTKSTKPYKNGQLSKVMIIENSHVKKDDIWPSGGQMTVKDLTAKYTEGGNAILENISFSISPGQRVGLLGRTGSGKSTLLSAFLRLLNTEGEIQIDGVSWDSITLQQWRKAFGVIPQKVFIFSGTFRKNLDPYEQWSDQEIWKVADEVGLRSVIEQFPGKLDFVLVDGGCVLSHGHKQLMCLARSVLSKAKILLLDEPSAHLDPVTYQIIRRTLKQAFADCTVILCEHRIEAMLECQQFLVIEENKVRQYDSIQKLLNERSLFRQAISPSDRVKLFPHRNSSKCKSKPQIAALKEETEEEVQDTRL

## CCOC(=O)N1[C@H](C(=O)O)[C@@H](C(C)(C)C)[C@H](NCc2cc(C(F)(F)F)cnc2OC)[C@@H]1c1ccccc1C(C)C [Example 97, (2S,3S,4S,5S)-3-tert-butyl-1-(ethoxycarbonyl)-4-({[2-methoxy-5-(trifluoromethyl)pyridin-3-yl]methyl}amino)-5-[2-(propan-2-yl)phenyl]pyrrolidine-2-carboxylic acid]
[1]
  EC50: < 1000 nM
[2]
  EC50: < 1000 nM
With co-corrector (2 μM)
  Maximum % activity (with co-corrector): +++ (≥350)
Without co-corrector
  Emax: > 200%

## COc1ncc(C2CC3CCC2C3)cc1CN[C@H]1[C@H](C(C)(C)C)[C@@H](C(=O)O)N(C(=O)C2CCCCC2)[C@H]1c1cccnc1N(C)C (stereo partly shown) [Example I-133]
[1]
  EC50: 1000 to 10000 nM
[2]
  EC50: 1000 to 10000 nM
With co-corrector (2 μM)
  Maximum % activity (with co-corrector): +++ (≥350)
Without co-corrector
  Emax: > 200%

## COc1cc(F)c(F)cc1CN[C@H]1[C@H](C(C)(C)C)[C@@H](C(=O)O)N(C(=O)C2CCCCC2)[C@H]1c1ccccc1 [II-128]
[3]
  EC50: 1000 to 10000 nM
[4]
  EC50: 1000 to 10000 nM
[5]
  Maximum % activity (with co-corrector): +++ (≥350)
CSE-HRP, without co-corrector
  Emax: 100 to 200%

## COc1ccc(C(F)(F)F)cc1CN[C@H]1[C@H](C(C)(C)C)[C@@H](C(=O)O)N(C(=O)C2CCC(C)C2)[C@H]1c1ccccc1 (stereo partly shown) [III-198]
[6]
  Emax: > 200%
[1]
  EC50: 1000 to 10000 nM
[2]
  EC50: < 1000 nM
With co-corrector (2 μM)
  Maximum % activity (with co-corrector): +++ (≥350)

## CC(C)(C)[C@H]1[C@H](Nc2cccc(C(F)(F)F)c2)[C@H](c2ccccc2)N(C(=O)C2CCCCC2)[C@@H]1C(=O)O [Example I-56]
[1]
  EC50: < 1000 nM
[2]
  EC50: < 1000 nM
With co-corrector (2 μM)
  Maximum % activity (with co-corrector): +++ (≥350)
Without co-corrector
  Emax: < 100%

## Cc1cc(C(F)(F)F)cc(N[C@H]2[C@H](C(C)(C)C)[C@@H](C(=O)O)N(C(=O)C3CCCCC3C(F)(F)F)[C@H]2c2cccnc2N(C)C)n1 (stereo partly shown) [II-502]
[6]
  Emax: < 100%
[1]
  EC50: 1000 to 10000 nM
[7]
  Maximum % activity (with co-corrector): ++ (≥150 and <350)
[2]
  EC50: 1000 to 10000 nM

## COc1ncc(C(C)(C)C)cc1CN[C@H]1[C@H](C(C)(C)C)[C@@H](C(=O)O)N(C(=O)C2CCCCC2)[C@H]1c1ccccc1 [Example 27, (2S,3S,4S,5S)-3-tert-butyl-4-{[(5-tert-butyl-2-methoxypyridin-3-yl)methyl]amino}-1-(cyclohexanecarbonyl)-5-phenylpyrrolidine-2-carboxylic acid]
[1]
  EC50: 1000 to 10000 nM
[2]
  EC50: 1000 to 10000 nM
With co-corrector (2 μM)
  Maximum % activity (with co-corrector): +++ (≥350)
Without co-corrector
  Emax: > 200%

## COc1ccc(C(C)(C)C)cc1CN[C@H]1[C@H](C(C)(C)C)[C@@H](C(=O)O)N(C(=O)CC(C)C)[C@H]1c1ccccc1 [II-564]
[6]
  Emax: > 200%
[1]
  EC50: 1000 to 10000 nM
[7]
  Maximum % activity (with co-corrector): +++ (≥350)
[2]
  EC50: 1000 to 10000 nM

## COc1nc(C(C)(C)C)ccc1CN[C@H]1[C@H](C(C)(C)C)[C@@H](C(=O)O)N(C(=O)C2CCCCC2)[C@H]1c1ccccc1 [Example 29, (2S,3S,4S,5S)-3-tert-butyl-4-{[(6-tert-butyl-2-methoxypyridin-3-yl)methyl]amino}-1-(cyclohexanecarbonyl)-5-phenylpyrrolidine-2-carboxylic acid]
[1]
  EC50: < 1000 nM
[2]
  EC50: < 1000 nM
With co-corrector (2 μM)
  Maximum % activity (with co-corrector): +++ (≥350)
Without co-corrector
  Emax: 100 to 200%

## COc1ncc(C(F)(F)F)cc1CN[C@H]1[C@H](C(C)(C)C)[C@@H](C(=O)O)N(C(=O)OC(C)C)[C@H]1c1ccccc1C1CC1 [Example 91, (2S,3S,4S,5S)-3-tert-butyl-5-(2-cyclopropylphenyl)-4-({[2-methoxy-5-(trifluoromethyl)pyridin-3-yl]methyl}amino)-1-{[(propan-2-yl)oxy]carbonyl}pyrrolidine-2-carboxylic acid]
[1]
  EC50: < 1000 nM
[2]
  EC50: < 1000 nM
With co-corrector (2 μM)
  Maximum % activity (with co-corrector): +++ (≥350)
Without co-corrector
  Emax: > 200%

## COc1cc2c(cc1CN[C@H]1[C@H](C(C)(C)C)[C@@H](C(=O)O)N(C(=O)C3CCCCC3)[C@H]1c1ccccc1)OCO2 [II-116]
[3]
  EC50: 1000 to 10000 nM
[4]
  EC50: 1000 to 10000 nM
[5]
  Maximum % activity (with co-corrector): +++ (≥350)
CSE-HRP, without co-corrector
  Emax: 100 to 200%

## COC(=O)N1CCC[C@H](C(=O)N2[C@H](c3ccccc3)[C@H](Nc3cc(C(F)(F)F)cc(C)n3)[C@@H](C(C)(C)C)[C@@H]2C(=O)O)C1 (racemic) [II-27]
[3]
  EC50: 1000 to 10000 nM
[4]
  EC50: 1000 to 10000 nM
[5]
  Maximum % activity (with co-corrector): +++ (≥350)
CSE-HRP, without co-corrector
  Emax: > 200%

## COc1cc(C(F)(F)F)ccc1CN[C@H]1[C@H](C(C)(C)C)[C@@H](C(=O)O)N(C(=O)[C@@H]2CCCCO2)[C@H]1c1cccnc1OC [II-92]
[3]
  EC50: 1000 to 10000 nM
[4]
  EC50: 1000 to 10000 nM
[5]
  Maximum % activity (with co-corrector): +++ (≥350)
CSE-HRP, without co-corrector
  Emax: 100 to 200%

## COc1ccc(C(C)(C)C)cc1CN[C@H]1[C@H](C(C)(C)C)[C@@H](C(=O)O)N(C(=O)CN2Cc3ccccc3C2)[C@H]1c1ccccc1 [Example I-91]
[1]
  EC50: 1000 to 10000 nM
[2]
  EC50: 1000 to 10000 nM
With co-corrector (2 μM)
  Maximum % activity (with co-corrector): +++ (≥350)
Without co-corrector
  Emax: > 200%

## COc1ccc(C(C)(C)C)cc1CN[C@H]1[C@H](C(C)(C)C)[C@@H](C(=O)O)N(C(=O)C(OC)C(C)(C)C)[C@H]1c1ccccc1 (stereo partly shown) [II-298]
[3]
  EC50: 1000 to 10000 nM
[4]
  EC50: 1000 to 10000 nM
[5]
  Maximum % activity (with co-corrector): +++ (≥350)
CSE-HRP, without co-corrector
  Emax: 100 to 200%

## COc1ccc(C(C)(C)C)cc1CN[C@H]1[C@H](C(C)(C)C)[C@@H](C(=O)O)N(C(=O)C2CCCC(C(F)(F)F)C2)[C@H]1c1ccccc1 (stereo partly shown) [II-186]
[3]
  EC50: < 1000 nM
[4]
  EC50: < 1000 nM
[5]
  Maximum % activity (with co-corrector): +++ (≥350)
CSE-HRP, without co-corrector
  Emax: > 200%

## COc1ccc(C(C)C)cc1CN[C@H]1[C@H](C(C)(C)C)[C@@H](C(=O)O)N(C(=O)C2CCCCC2)[C@H]1c1ccccc1 [II-168]
[3]
  EC50: 1000 to 10000 nM
[4]
  EC50: < 1000 nM
[5]
  Maximum % activity (with co-corrector): +++ (≥350)
CSE-HRP, without co-corrector
  Emax: > 200%

## COc1ccc(C(C)(C)C)cc1CN[C@H]1[C@H](C(C)(C)C)[C@@H](C(=O)O)N(C(=O)[C@@H]2CCCN(C(=O)OC(C)C)C2)[C@H]1c1ccccc1 [Example I-246, (2S,3S,4S,5S)-3-tert-butyl-4-{[(5-tert-butyl-2-methoxyphenyl)methyl]amino}-5-phenyl-1-[(3R)-1-{[(propan-2-yl)oxy]carbonyl}piperidine-3-carbonyl]pyrrolidine-2-carboxylic acid]
[1]
  EC50: 1000 to 10000 nM
[2]
  EC50: 1000 to 10000 nM
With co-corrector (2 μM)
  Maximum % activity (with co-corrector): +++ (≥350)
Without co-corrector
  Emax: > 200%

## COc1nc2ccccc2cc1CN[C@H]1[C@H](C(C)(C)C)[C@@H](C(=O)O)N(C(=O)OC(C)C)[C@H]1c1ccccc1C(C)C [Example I-250]
[3]
  EC50: 1000 to 10000 nM
[4]
  EC50: < 1000 nM
[5]
  Maximum % activity (with co-corrector): +++ (≥350)
CSE-HRP, without co-corrector
  Emax: > 200%

## COc1cc(Cl)ccc1CN[C@@H]1[C@@H](C(C)(C)C)[C@H](C(=O)O)N(C(=O)OC(C)C)[C@@H]1c1ccccc1 (racemic) [II-45]
[3]
  EC50: 1000 to 10000 nM
[4]
  EC50: 1000 to 10000 nM
[5]
  Maximum % activity (with co-corrector): +++ (≥350)
CSE-HRP, without co-corrector
  Emax: > 200%

## COc1cc(C(F)(F)F)ccc1CN[C@@H]1[C@@H](C(C)(C)C)[C@H](C(=O)O)N(C(=O)C(C)c2ccccc2)[C@@H]1c1ccccc1 (single isomer, unassigned) [II-80]
[3]
  EC50: 1000 to 10000 nM
[4]
  EC50: 1000 to 10000 nM
[5]
  Maximum % activity (with co-corrector): +++ (≥350)
CSE-HRP, without co-corrector
  Emax: 100 to 200%

## COc1ncc(C(F)(F)F)cc1CN[C@H]1[C@H](C(C)(C)C)[C@@H](C(=O)O)N(C(=O)[C@@H]2CCCO2)[C@H]1c1ccccc1C [Example I-262]
[3]
  EC50: 1000 to 10000 nM
[4]
  EC50: 1000 to 10000 nM
[5]
  Maximum % activity (with co-corrector): +++ (≥350)
CSE-HRP, without co-corrector
  Emax: > 200%

## COc1ccc(-c2ccccc2C)cc1CN[C@H]1[C@H](C(C)(C)C)[C@@H](C(=O)O)N(C(=O)C2CCCCC2)[C@H]1c1ccccc1 [II-279]
[3]
  EC50: < 1000 nM
[4]
  EC50: < 1000 nM
[5]
  Maximum % activity (with co-corrector): +++ (≥350)
CSE-HRP, without co-corrector
  Emax: > 200%

## COc1ncc(C2(C)CC2(F)F)cc1CN[C@H]1[C@H](C(C)(C)C)[C@@H](C(=O)O)N(C(=O)C2CCCCC2)[C@H]1c1ccccc1 (stereo partly shown) [II-422]
[6]
  Emax: 100 to 200%
[1]
  EC50: < 1000 nM
[7]
  Maximum % activity (with co-corrector): +++ (≥350)
[2]
  EC50: < 1000 nM

## COc1ccc(CN[C@@H]2[C@@H](C(C)(C)C)[C@H](C(=O)O)N(C(=O)C3CCCCC3)[C@@H]2c2ccccc2)c(OC)c1Cl (racemic) [III-15]
[6]
  Emax: < 100%
[1]
  EC50: 1000 to 10000 nM
[7]
  Maximum % activity (with co-corrector): ++ (≥150 and <350)
[2]
  EC50: < 1000 nM

## COc1ccc(C(C)(C)C)cc1CN[C@H]1[C@H](C(C)(C)C)[C@@H](C(=O)O)N(C(=O)C2CC3CCC(C2)O3)[C@H]1c1ccccc1 (stereo partly shown) [Example I-172]
[1]
  EC50: 1000 to 10000 nM
[2]
  EC50: 1000 to 10000 nM
With co-corrector (2 μM)
  Maximum % activity (with co-corrector): +++ (≥350)
Without co-corrector
  Emax: > 200%

## COc1ccc(C2(C)CCC2)cc1CN[C@H]1[C@H](C(C)(C)C)[C@@H](C(=O)O)N(C(=O)[C@@H]2CCCCO2)[C@H]1c1ccccc1C(C)C [Example I-304]
[3]
  EC50: < 1000 nM
[4]
  EC50: < 1000 nM
[5]
  Maximum % activity (with co-corrector): +++ (≥350)
CSE-HRP, without co-corrector
  Emax: > 200%

## CC(C)(C)[C@H]1[C@H](NCc2ccc(F)c(C#N)c2)[C@H](c2ccccc2)N(C(=O)C2CCCCC2)[C@@H]1C(=O)O [III-125]
[6]
  Emax: < 100%
[1]
  EC50: > 10000 nM
[2]
  EC50: 1000 to 10000 nM
With co-corrector (2 μM)
  Maximum % activity (with co-corrector): ++ (≥150 and <350)
